Data from US20170217976A1, “6-(AMINO ACID)-MORPHINAN DERIVATIVES IN COMBINATION WITH PERMEATION […] FOR USE AS AN ORALLY, […], TRA[…] NASALLY AD[…]” (C[…], priority 2014, published 2017).
Where two headings read alike, the source gives them in different places.

Key:
MOR = biological target: T1, MOR (Rattus norvegicus, UniProt P33535); assay: Opioid receptor binding, MOR, rat brain membranes
T1 construct: from tissue

DOR = biological target: T2, DOR (Rattus norvegicus, UniProt P33533); assay: Opioid receptor binding, DOR, rat brain membranes
T2 construct: from tissue

KOR = biological target: T3, KOR (Cavia porcellus, UniProt P41144); assay: Opioid receptor binding, KOR, guinea pig brain membranes
T3 construct: from tissue

[1] = Binding Ki (nM) MOR, in vitro binding assay, rat brain membranes
[2] = Binding Ki MOR, Table 1-4, rat brain membranes
[3] = Binding Ki (nM) DOR, in vitro binding assay, rat brain membranes
[4] = Binding Ki DOR, Table 1-4, rat brain membranes
[5] = Binding Ki (nM) KOR, in vitro binding assay, guinea pig brain membranes
[6] = Binding Ki KOR, Table 1-4, guinea pig brain membranes
[7] = in vitro binding assay, rat brain membranes, read-out: Binding Ki (nM) MOR
[8] = in vitro binding assay, rat brain membranes, read-out: Binding Ki (nM) DOR
[9] = in vitro binding assay, guinea pig brain membranes, read-out: Binding Ki (nM) KOR
[10] = Binding Ki MOR, Table 2-6, rat brain membranes
[11] = Binding Ki DOR, Table 2-6, rat brain membranes
[12] = Binding Ki KOR, Table 2-6, guinea pig brain membranes
[13] = Binding Ki MOR, Table 1-6, rat brain membranes
[14] = Binding Ki DOR, Table 1-6, rat brain membranes
[15] = Binding Ki KOR, Table 1-6, guinea pig brain membranes

T1 sequence (P33535 whole entry): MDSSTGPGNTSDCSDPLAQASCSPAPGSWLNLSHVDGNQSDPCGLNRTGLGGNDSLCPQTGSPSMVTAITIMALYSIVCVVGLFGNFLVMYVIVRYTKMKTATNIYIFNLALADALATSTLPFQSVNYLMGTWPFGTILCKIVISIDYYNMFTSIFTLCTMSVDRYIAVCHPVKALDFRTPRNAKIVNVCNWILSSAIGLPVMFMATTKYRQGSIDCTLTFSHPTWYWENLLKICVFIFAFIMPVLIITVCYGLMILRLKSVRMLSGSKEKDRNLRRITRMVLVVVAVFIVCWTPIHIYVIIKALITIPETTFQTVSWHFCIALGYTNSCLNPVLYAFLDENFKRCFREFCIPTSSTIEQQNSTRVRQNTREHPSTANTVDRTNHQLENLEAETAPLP
T3 sequence (P41144 whole entry): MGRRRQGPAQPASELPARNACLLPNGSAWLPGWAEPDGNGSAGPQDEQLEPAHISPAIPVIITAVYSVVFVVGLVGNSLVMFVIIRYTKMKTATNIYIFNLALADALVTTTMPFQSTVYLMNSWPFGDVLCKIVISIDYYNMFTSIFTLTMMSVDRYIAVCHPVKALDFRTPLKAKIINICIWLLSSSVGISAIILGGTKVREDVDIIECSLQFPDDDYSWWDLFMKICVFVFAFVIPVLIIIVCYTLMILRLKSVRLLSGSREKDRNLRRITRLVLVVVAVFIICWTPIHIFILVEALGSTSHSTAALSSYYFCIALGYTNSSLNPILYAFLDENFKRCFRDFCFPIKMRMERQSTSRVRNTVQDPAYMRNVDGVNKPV
T2 sequence (P33533 whole entry): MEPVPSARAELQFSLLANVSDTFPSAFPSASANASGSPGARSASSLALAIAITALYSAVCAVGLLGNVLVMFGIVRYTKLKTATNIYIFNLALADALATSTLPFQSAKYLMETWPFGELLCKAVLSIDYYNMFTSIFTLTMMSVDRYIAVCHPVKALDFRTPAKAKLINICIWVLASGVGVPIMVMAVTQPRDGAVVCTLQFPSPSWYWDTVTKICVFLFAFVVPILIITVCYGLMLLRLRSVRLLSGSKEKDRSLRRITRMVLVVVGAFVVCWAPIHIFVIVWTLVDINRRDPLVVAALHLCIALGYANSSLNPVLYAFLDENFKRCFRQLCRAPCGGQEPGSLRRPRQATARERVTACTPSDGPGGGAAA

Row | Structure (SMILES) | Ki (MOR; [1]) [nM] | Ki (MOR; [2]) [nM] | Ki (DOR; [3]) [nM] | Ki (DOR; [4]) [nM] | Ki (KOR; [5]) [nM] | Ki (KOR; [6]) [nM] | Ki (MOR; [10]) [nM] | Ki (DOR; [11]) [nM] | Ki (KOR; [12]) [nM] | also measured
1 | CO[C@@]12CC[C@H](N[C@@H](CCC(N)=O)C(=O)O)[C@@H]3Oc4c(O)ccc5c4[C@@]31CCN(C)[C@@H]2C5 [Compound 17] | 3.24 | 3.24 | 5.13 | 5.13 | 351 | 351 | – | – | – | –
2 | CO[C@@]12CC[C@@H](N[C@@H](CCC(N)=O)C(=O)O)[C@@H]3Oc4c(O)ccc5c4[C@@]31CCN(C)[C@@H]2C5 [Compound 18] | 2.48 | 2.48 | 4.87 | 4.87 | 290 | 290 | – | – | – | –
3 | CO[C@@]12CC[C@H](N[C@@H](CCSC)C(=O)O)[C@@H]3Oc4c(O)ccc5c4[C@@]31CCN(C)[C@@H]2C5 [Compound 23] | 0.93 | 0.93 | 4.03 | 4.03 | 109 | 109 | – | – | – | –
4 | CO[C@@]12CC[C@@H](N[C@@H](CCSC)C(=O)O)[C@@H]3Oc4c(O)ccc5c4[C@@]31CCN(C)[C@@H]2C5 [Compound 24] | 3.88 | 3.88 | 2.4 | 2.4 | 468 | 468 | – | – | – | –
5 | CO[C@@]12CC[C@@H](NCC(=O)NCC(=O)O)[C@@H]3Oc4c(O)ccc5c4[C@@]31CCN(C)[C@@H]2C5 [Compound 25] | – | 4.62 | – | 7.52 | – | 203 | – | – | – | –
6 | CO[C@@]12CC[C@@H](N[C@@H](CC(N)=O)C(=O)O)[C@@H]3Oc4c(O)ccc5c4[C@@]31CCN(C)[C@@H]2C5 [Compound 27] | 1.26 | 1.26 | 2.25 | 2.25 | 103 | 103 | – | – | – | –
7 | CO[C@@]12CC[C@H](N[C@H](C(=O)O)[C@@H](C)O)[C@@H]3Oc4c(O)ccc5c4[C@@]31CCN(C)[C@@H]2C5 [Compound 34] | 1.03 | 1.03 | 4.13 | 4.13 | 120 | 120 | – | – | – | –
8 | CO[C@@]12CC[C@@H](N[C@@H](CCCCN)C(=O)O)[C@@H]3Oc4c(O)ccc5c4[C@@]31CCN(C)[C@@H]2C5 [Compound 39] | – | – | – | – | – | – | – | – | – | Ki (MOR; Table 1-4, rat brain membranes, read-out: Binding Ki MOR): 0.53 nM; Ki (MOR; [7]): 0.53 nM; Ki (DOR; Table 1-4, rat brain membranes, read-out: Binding Ki DOR): 3.34 nM; Ki (DOR; [8]): 3.34 nM; Ki (KOR; Table 1-4, guinea pig brain membranes, read-out: Binding Ki KOR): 33.7 nM; Ki (KOR; [9]): 33.7 nM
9 | CO[C@@]12CC[C@H](N[C@@H](CC(C)C)C(=O)O)[C@@H]3Oc4c(O)ccc5c4[C@@]31CCN(C)[C@@H]2C5 [Compound 40] | 0.68 | 0.68 | 2.34 | 2.34 | 141 | 141 | – | – | – | –
10 | CO[C@@]12CC[C@@H](N[C@@H](CC(C)C)C(=O)O)[C@@H]3Oc4c(O)ccc5c4[C@@]31CCN(C)[C@@H]2C5 [Compound 41] | 1.32 | 1.32 | 1.01 | 1.01 | 297 | 297 | – | – | – | –
11 | CC[C@H](C)[C@H](N[C@H]1CC[C@@]2(OC)[C@H]3Cc4ccc(O)c5c4[C@@]2(CCN3C)[C@H]1O5)C(=O)O [Compound 42] | 0.84 | 0.84 | 3.2 | 3.2 | 131 | 131 | – | – | – | –
12 | CC[C@H](C)[C@H](N[C@@H]1CC[C@@]2(OC)[C@H]3Cc4ccc(O)c5c4[C@@]2(CCN3C)[C@H]1O5)C(=O)O [Compound 43] | 1.46 | 1.46 | 1.3 | 1.3 | 163 | 163 | – | – | – | –
13 | CCO[C@@]12CC[C@H](N[C@@H](Cc3ccccc3)C(=O)O)[C@@H]3Oc4c(O)ccc5c4[C@@]31CCN(CC1CC1)[C@@H]2C5 [Compound 55] | – | – | – | – | – | – | 0.35 | 0.7 | 2.6 | –
14 | CCO[C@@]12CC[C@@H](N[C@@H](Cc3ccccc3)C(=O)O)[C@@H]3Oc4c(O)ccc5c4[C@@]31CCN(CC1CC1)[C@@H]2C5 [Compound 56] | – | – | – | – | – | – | 1.04 | 1.76 | 11.6 | –
15 | CO[C@@]12CC[C@H](N[C@@H](Cc3ccccc3)C(=O)O)[C@@H]3Oc4c(O)ccc5c4[C@@]31CCN(CC1CC1)[C@@H]2C5 [Compound 57] | – | – | – | – | – | – | 0.51 | 1.17 | 4.21 | –
16 | CO[C@@]12CC[C@@H](N[C@@H](Cc3ccccc3)C(=O)O)[C@@H]3Oc4c(O)ccc5c4[C@@]31CCN(CC1CC1)[C@@H]2C5 [Compound 58] | – | – | – | – | – | – | – | – | – | Ki (MOR; Table 2-6, rat brain membranes, read-out: Binding Ki MOR): 1.23 nM; Ki (DOR; Table 2-6, rat brain membranes, read-out: Binding Ki DOR): 2.02 nM; Ki (KOR; Table 2-6, guinea pig brain membranes, read-out: Binding Ki KOR): 8.42 nM
17 | O=C(O)CN[C@H]1CC[C@@]2(O)[C@H]3Cc4ccc(O)c5c4[C@@]2(CCN3CC2CC2)[C@H]1O5 [Compound 67] | – | – | – | – | – | – | – | – | – | Ki (MOR; [13]): 0.88 nM; Ki (DOR; [14]): 13.1 nM; Ki (KOR; [15]): 2.81 nM
18 | CO[C@@]12CC[C@@H](N[C@@H](C)C(=O)O)[C@@H]3Oc4c(O)ccc5c4[C@@]31CCN(CC1CC1)[C@@H]2C5 [Compound 72] | – | – | – | – | – | – | 2.13 | 5.8 | 11.5 | Ki (MOR; [13]): 2.13 nM; Ki (DOR; [14]): 5.8 nM; Ki (KOR; [15]): 11.5 nM
19 | CO[C@@]12CC[C@@H](N[C@@H](CC(=O)O)C(=O)O)[C@@H]3Oc4c(O)ccc5c4[C@@]31CCN(CC1CC1)[C@@H]2C5 [Compound 73] | – | – | – | – | – | – | 2.24 | 0.64 | 11.7 | Ki (MOR; [13]): 2.24 nM; Ki (DOR; [14]): 0.64 nM; Ki (KOR; [15]): 11.7 nM
20 | COC12CCC(NC(CCC(=O)O)C(=O)O)C3Oc4c(O)ccc5c4C31CCN(CC1CC1)C2C5 (stereo not drawn) [Compound 74] | – | – | – | – | – | – | 1.93 | 3.61 | 6.66 | Ki (MOR; [13]): 1.93 nM; Ki (DOR; [14]): 3.61 nM; Ki (KOR; [15]): 6.66 nM
21 | CO[C@@]12CC[C@@H](N[C@@H](CCC(=O)O)C(=O)O)[C@@H]3Oc4c(O)ccc5c4[C@@]31CCN(CC1CC1)[C@@H]2C5 [Compound 75] | – | – | – | – | – | – | 3.35 | 2.77 | 12.9 | Ki (MOR; [13]): 3.35 nM; Ki (DOR; [14]): 2.77 nM; Ki (KOR; [15]): 12.9 nM
22 | CO[C@@]12CC[C@H](N[C@@H](CC(C)C)C(=O)O)[C@@H]3Oc4c(O)ccc5c4[C@@]31CCN(CC1CC1)[C@@H]2C5 [Compound 76] | – | – | – | – | – | – | 0.72 | 2.2 | 7.87 | –
23 | CO[C@@]12CC[C@@H](N[C@@H](CC(C)C)C(=O)O)[C@@H]3Oc4c(O)ccc5c4[C@@]31CCN(CC1CC1)[C@@H]2C5 [Compound 77] | – | – | – | – | – | – | 1.96 | 1.13 | 11 | –
24 | CC[C@H](C)[C@H](N[C@@H]1CC[C@@]2(OC)[C@H]3Cc4ccc(O)c5c4[C@@]2(CCN3CC2CC2)[C@H]1O5)C(=O)O [Compound 78] | – | – | – | – | – | – | 1.62 | 1.44 | 9.49 | –
25 | CC[C@H](N[C@@H]1CC[C@@]2(OC)[C@H]3Cc4ccc(O)c5c4[C@@]2(CCN3CC2CC2)[C@H]1O5)C(=O)O [Compound 79] | – | – | – | – | – | – | – | – | – | Ki (MOR; [13]): 3.39 nM; Ki (DOR; [14]): 6.2 nM; Ki (KOR; [15]): 19.1 nM
26 | CCOC(=O)CN[C@H]1CC[C@@]2(OC)[C@H]3Cc4ccc(O)c5c4[C@@]2(CCN3C)[C@H]1O5 [HS730-Et ester] | 0.28 | – | 0.96 | – | 8.57 | – | – | – | – | –
27 | CO[C@@]12CC[C@H](NCC(=O)OCc3ccccc3)[C@@H]3Oc4c(O)ccc5c4[C@@]31CCN(C)[C@@H]2C5 [HS730-benzyl ester] | 0.19 | – | 0.91 | – | 0.47 | – | – | – | – | –
28 | CCCCCCCCOC(=O)CN[C@H]1CC[C@@]2(OC)[C@H]3Cc4ccc(O)c5c4[C@@]2(CCN3C)[C@H]1O5 [HS730-nOc ester] | – | – | – | – | – | – | – | – | – | Ki (MOR; [7]): 1.29 nM; Ki (DOR; [8]): 3.23 nM; Ki (KOR; [9]): 2.97 nM
29 | CO[C@@]12CC[C@@H](NCC(=O)OCc3ccccc3)[C@@H]3Oc4c(O)ccc5c4[C@@]31CCN(C)[C@@H]2C5 [HS731-benzyl ester] | 0.29 | – | – | – | – | – | – | – | – | Ki (DOR; [8]): 0.74 nM; Ki (KOR; [9]): 2.86 nM
